system: AGS cells (KRAS^G12D); assay: Detection of cell proliferation in vitro by MTT/MTS method (cell activity experiment); format: cell-based; details: AGS cells; MTT/MTS; 3 days of drug treatment; read-out: AGS IC50
Experimental: The above cells were cultured in a complete medium containing 10% fetal bovine serum, 100 IU/mL penicillin and 100 jag/mL streptomycin, in the aseptic incubator with 95% relative humidity and 5% CO2 concentration.
2. Reagents: F12K, D-PBS, FBS, Penicillin Streptomycin, Tryple, MTT (5 mg/mL)
Appropriate amount of compound powder was weighed in a 1.5 mL centrifuge tube, then the corresponding volume of dimethyl sulfoxide (DMSO) was added to form a 20 mM reserve solution. The solution was packed separately and stored in a refrigerator at −20° C. away from light.
The cells were inoculated in a cell culture bottle, added an appropriate amount of complete medium, and cultured in a sterile incubator. When the degree of cell confluence reached more than 80%, subculture was carried out.
The adherent cells in logarithmic growth phase were digested by trypsin or the suspension cells were collected by centrifugation and counted. 90 μL cell suspension was inoculated into 96-well plate according to the cell inoculation density of 1000 cells per well, and 10 μL of 10-fold final concentration compound diluted by culture medium was added 24 hours later. Compared with the hole with the same volume of 5% DMSO as control, the final concentration of DMSO was 0.5%. After 3 days of drug treatment, the cell viability was detected by MTT. The specific methods are as follows: 10 μL MTT per well was added into the incubator for 4 hours, the supernatant was discarded and 150 μL DMSO was added to dissolve the crystal methylazan, and the absorbance of 490 nm was detected by enzyme labeling instrument, or 10 μL MITS per well was added to the incubator for 4 hours, and […] absorbance was detected directly by enzyme labeling instrument. GraphPad Prism 6 software makes dose-effect curve and calculates IC50.

With `CCC1CCCc2cc(O)cc(-c3ccc4c(N5C[C@H]6CC[C@@H](C5)N6)nc(OC[C@@]56CCCN5C[C@H](F)C6)nc4c3F)c21` (single isomer, unassigned) [Example 291] the IC50 was 7.2 nM.

same assay, conditions: Homo sapiens, AGS, 72 h, AGS cells; MTT/MTS; 3 days of drug treatment; read-out: AGS IC50

`C#Cc1cccc2cc(O)cc(-c3ncc4c(N5CC6CCC(C5)C6F)nc(OC[C@@]56CCCN5C[C@H](F)C6)nc4c3F)c12` (stereo partly drawn) [Example 36, 5-ethynyl-4-(8-fluoro-4-((1R,5S,8R)-8-fluoro-3-azabicyclo[3.2.1]octan-3-yl)-2-(((2R,7aS)-2-fluorotetrahydro-1H-pyrrolizin-7a(5H)-yl)methoxy)pyrido[4,3-d]pyrimidin-7-yl) naphthalen-2-ol] and `C#Cc1cccc2cc(O)cc(-c3ncc4c(C5C[C@H]6CC[C@@H](C5)N6)nc(OC[C@@]56CCCN5C[C@H](F)C6)nc4c3F)c12` (stereo partly drawn) [Example 83, 4-(4-((1R,5S)-8-azabicyclo[3.2.1]octan-3-yl)-8-fluoro-2-(((2R,7aS)-2-fluorotetrahydro-1H-pyrrolizin-7a(5H)-yl)methoxy)pyrido [4,3-d]pyrimidin-7-yl)-5-ethynylnaphthalen-2-ol] cannot be ordered by IC50: over 2500 nM for the first, over 2500 nM for the second.

First: O=C1CCc2cc(O)cc(-c3ccc4c(N5C[C@H]6CC[C@@H](C5)N6)nc(OC[C@@]56CCCN5C[C@H](F)C6)nc4c3F)c21 [Example 297, 7-(4-((1R,5S)-3,8-diazabicyclo[3.2.1]octan-3-yl)-8-fluoro-2-(((2R,7aS)-2-fluorotetrahydro-1H-pyrrolizin-7a(5H)-yl)methoxy)quinazolin-7-yl)-5-hydroxy-2,3-dihydro-1H-inden-1-one]
Second: C#Cc1c(F)ccc2cc(O)cc(-c3ccc4c(N5CC(C)(NC)C5)nc(OC[C@@]56CCCN5C[C@H](F)C6)nc4c3F)c12 [Example 218, 5-ethynyl-6-fluoro-4-(8-fluoro-2-(((2R,7aS)-2-fluorotetrahydro-1H-pyrrolizin-7a(5H)-yl)methoxy)-4-(3-methyl-3-(methylamino)azetidin-1-yl)quinazolin-7-yl)naphthalen-2-ol]
The IC50 of the first is higher: over 2500 nM for the first, 980 nM for the second.

`Nc1cc2ccccc2c(-c2ncc3c(N4C[C@H]5CC[C@@H](C4)N5)nc(OCC4(CN5CCCC5)CC4)nc3c2F)n1` [Example 7, 1-(4-((1R,5S)-3,8-diazabicyclo[3.2.1]octan-3-yl)-8-fluoro-2-((1-(pyrrolidin-1-ylmethyl)cyclopropyl)methoxy)pyrido[4,3-d]pyrimidin-7-yl)isoquinolin-3-amine] and `C#Cc1c(F)ccc2cccc(-c3ccc4c(N5C[C@H]6CC[C@@H](C5)N6)nc(OC[C@]56CCCN5[C@@H](COC(=O)N(C)C)CC6)nc4n3)c12` [Example 147, ((3R,7aR)-7a-(((4-((1R, 5S)-3,8-diazabicyclo [3.2.1]octan-3-yl)-7-(8-ethynyl-7-fluoronaphthalen-1-yl)pyrido[2,3-d]pyrimidin-2-yl)oxy)methyl)hexahydro-1H-pyrrolizin-3-yl)methyl dimethylcarbamate] cannot be ordered by IC50: 2580 nM for the first, over 2500 nM for the second.

First: N#Cc1c(OC[C@@]23CCCN2C[C@H](F)C3)nc2cc(-c3cccc4ccc(F)c(Cl)c34)ccc2c1N1C[C@H]2CC[C@@H](C1)N2 [Example 170, 4-((1R,5S)-3,8-diazabicyclo[3.2.1]octan-3-yl)-7-(8-chloro-7-fluoronaphthalen-1-yl)-2-(((2R,7aS)-2-fluorotetrahydro-1H-pyrrolizin-7a(5H)-yl)methoxy)quinoline-3-carbonitrile]
Second: C#Cc1nccc2cc(O)cc(-c3ncc4c(NCC5(N(C)C)CCC5)nc(OC[C@@]56CCCN5C[C@H](F)C6)nc4c3F)c12 [Example 424, 8-(4-(((1-(dimethylamino)cyclobutyl)methyl)amino)-8-fluoro-2-(((2R,7aS)-2-fluorotetrahydro-1H-pyrrolizin-7a(5H)-yl)methoxy)pyrido[4,3-d]pyrimidin-7-yl)-1-ethynylisoquinolin-6-ol]
The IC50 of the first is 35-fold higher: 1040 nM for the first, 30 nM for the second. The second is the more potent here.
